According to PubChem BioAssay (NCI):
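Each compound was tested at five concentrations against cells in 96-well plates for 48 hours. GI50 is the concentration that inhibits growth by half. TGI: total growth inhibition.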 *1 amine or outer side, *2 acyl side, *3 side chain or, on linkers, in order; H or OH if unused. Where a SMILES comes first, the peptide text is derived from it. Bridges are numbered along the chain shown (N, C = ends). Roman numbers before positions name the chains, in order. [ ]: non-standard residue; d: D form. ξ: configuration not given here. X54 = N=C(N)NCCC[C@@H](NC(=N)CCCCCCC(=N)N[C@H](CCCNC(=N)N)C(=O)[*:2])C(=O)[*:1]; dIgl = N[C@@H](C(=O)O)C1Cc2ccccc2C1; Hyp = O=C(O)[C@@H]1C[C@@H](O)CN1; ξIgl = NC(C(=O)O)C1Cc2ccccc2C1; ξOic = O=C(O)C1CC2CCCCC2N1; ξR = N=C(N)NCCCC(N)C(=O)O; ξP = O=C(O)C1CCCN1; ξS = NC(CO)C(=O)O

Tests used:
Assay in all cases: inhibition of tumour cell growth, NCI panel, 48 h
[1] = system: SR leukemia
[2] = system: COLO 205 colon
[3] = system: M14 melanoma
[4] = system: HCC-2998 colon
[5] = system: SNB-75 CNS
[6] = system: NCI-H522 lung
[7] = system: KM12 colon
[8] = system: SNB-19 CNS
[9] = system: BT-549 breast
[10] = system: HOP-92 NSCLC
[11] = system: HL-60(TB) leukemia
[12] = system: A498 renal

Structure (SMILES) | TGI [1] [µM] | TGI [2] [µM] | TGI [3] [µM] | TGI [4] [µM] | TGI [5] [µM] | TGI [6] [µM] | TGI [7] [µM] | TGI [8] [µM] | TGI [9] [µM] | TGI [10] [µM] | TGI [11] [µM] | TGI [12] [µM] | GI50 [2] [µM] | GI50 [4] [µM] | GI50 [5] [µM] | GI50 [6] [µM] | GI50 [10] [µM] | GI50 [7] [µM] | GI50 [12] [µM] | GI50 [8] [µM]
O[C@@H]1C[C@H](Cl)c2c(Cl)sc(Cl)c21 | > 100 | > 100 | > 100 | > 100 | > 100 | > 100 | > 100 | > 100 | > 100 |  |  |  |  |  |  |  |  |  |  | 
c1coc(-c2nccc3c2[nH]c2ccccc23)c1 | > 100 | 33.5 | > 100 | > 100 |  | > 100 | > 100 | > 100 |  | > 100 | > 100 | > 100 |  |  |  |  |  |  |  | 
CC1=NN(C(=O)Cc2ccccc2)C(=O)/C1=C\c1ccc([N+](=O)[O-])cc1 |  | > 100 | > 100 | > 100 |  | > 100 | > 100 | > 100 |  | 9.82 |  | > 100 |  |  |  |  |  |  |  | 
CN(C)C(=O)Oc1c(Br)cc(Br)cc1C(=O)OCc1ccccc1 |  | 34 |  | > 96.5 | 97 | > 100 | 75.9 | > 100 |  | 42.8 | 49.9 | 71.4 |  |  |  |  |  |  |  | 
CN(C)CN1CSC(=S)N(CN(C)C)C1 | 55.2 |  | > 100 | > 100 | > 100 | > 100 | > 100 | > 100 | > 100 | > 100 |  | > 100 |  |  |  |  |  |  |  | 
CCn1c2nc(=O)n(CCCCCCCCSC(c3ccccc3)(c3ccccc3)c3ccccc3)c(=O)c-2nc2ccccc21 | > 100 |  | 31.6 | 19.6 |  | > 100 | > 100 |  |  | 53.1 | 6.51 | > 100 |  |  |  |  |  |  |  | 
COC(C/C(=C/CO[Si](C(C)C)(C(C)C)C(C)C)C(=O)N(C(=O)OC(C)(C)C)c1ccccc1I)OC | > 100 | > 100 | > 100 | > 100 | > 100 | 18.3 | > 100 | > 100 |  | > 100 |  | > 100 |  |  |  |  |  |  |  | 
Cn1c(-c2ccc(-c3cc(-c4cccs4)c(-c4cccs4)n3C)cc2)cc(-c2cccs2)c1-c1cccs1 | > 100 | > 100 | > 100 | > 100 | > 100 |  | > 100 | > 100 |  |  | > 100 |  |  |  |  |  |  |  |  | 
COc1ccccc1NC(=S)N=Nc1c(O)[nH]c2ccccc12 | > 100 | > 100 | > 100 | > 100 | > 100 | > 100 | > 100 | > 100 |  | > 100 |  | > 100 |  |  |  |  |  |  |  | 
Nc1nc(Cl)cc(OCC2(CO)CCCC2)n1 |  |  |  | > 100 | > 100 | > 100 |  | > 100 |  | > 100 | > 100 | > 100 |  |  |  |  |  |  |  | 
O=c1cc(-c2ccccc2)[nH]c2ncccc12 |  |  | > 100 | > 42 |  | 0.702 | 15.7 | > 100 | > 100 | 7.54 |  | > 100 |  |  |  |  |  |  |  | 
CC[C@@]1(O)C[C@H](OC2CC(N(C)C)C(O)C(C)O2)c2c(cc3c(c2O)C(=O)c2c(O)ccc(O)c2C3=O)[C@H]1C(=O)OC (stereo partly drawn) |  | 0.359 |  | 0.579 | 0.354 | 0.501 | 1 | 2.91 |  | 1.35 | 0.218 | 0.239 |  |  |  |  |  |  |  | 
CCC(C)(C)c1cc(O)c(C(C)(C)CC)cc1O |  | 5.28 |  | 5.36 | 16.5 | 6.03 | 12.6 | 12.6 |  | 5.62 |  | 8.5 | 2.42 | 2.3 | 3.14 | 1.98 | 1.63 | 3.52 | 0.732 | 2.69
CC(=O)O[C@H]1C(=O)[C@@]2(C)[C@H]([C@H](OC(=O)c3ccccc3)[C@]3(O)C[C@H](OC(=O)[C@H](O)[C@@H](NC(=O)c4ccccc4)c4ccc5ccccc5c4)C(C)=C1C3(C)C)[C@]1(OC(C)=O)CO[C@@H]1C[C@@H]2O | 1.85 | 0.319 | 1.85 | 0.228 | 2.15 |  |  | > 31.8 |  | > 14 | 0.0327 | 6.96 |  |  |  |  |  |  |  | 
N=C(N)NCCCC(NC(=O)C1CC2CCCCC2N1C(=O)[C@H](NC(=O)C(CO)NC(=O)C(NC(=O)CNC(=O)[C@@H]1C[C@@H](O)CN1C(=O)C1CCCN1C(=O)C(CCCNC(=N)N)NC(=O)[C@@H](CCCNC(=N)N)NC(=N)CCCCCCC(=N)N[C@H](CCCNC(=N)N)C(=O)NC(CCCNC(=N)N)C(=O)N1CCCC1C(=O)N1C[C@H](O)C[C@H]1C(=O)NCC(=O)NC(C(=O)NC(CO)C(=O)N[C@@H](C(=O)N1C(C(=O)NC(CCCNC(=N)N)C(=O)O)CC2CCCCC21)C1Cc2ccccc2C1)C1Cc2ccccc2C1)C1Cc2ccccc2C1)C1Cc2ccccc2C1)C(=O)O (stereo partly drawn) (I: [ξR][ξP][Hyp]G[ξIgl][ξS][dIgl][ξOic][ξR]-OH / II: [ξR][ξP][Hyp]G[ξIgl][ξS][dIgl][ξOic][ξR]-OH; linker I:N-II:N via X54) | 2.95 | 3.28 | 7.23 |  |  | > 10 | 4.13 | 5.49 |  | 4.71 | 0.409 |  |  |  |  |  |  |  |  | 
Fc1ccc(-c2sc(-c3ccsc3)cc2Cc2ccsc2)cc1 | > 10 | > 10 | > 10 | > 10 | > 10 |  | > 10 |  |  | > 10 | > 10 |  |  |  |  |  |  |  |  | 
CC(C)(C)COC(=O)C(C)(C)NC(=O)C(CC(=O)OCc1ccccc1)NC(=O)OCc1ccccc1 (stereo not drawn) | > 100 | 44 | > 100 | > 100 | > 100 | > 100 | > 100 | 75.7 |  | > 100 | > 100 | 79.5 |  |  |  |  |  |  |  | 
COc1cc(C2c3cc4c(cc3OC(NNc3ccccc3)C2C)OCO4)cc(OC)c1OC (stereo not drawn) |  | 10.3 | 22.7 | 3.96 | > 62.7 | 4.72 | 38 | > 31 | 33.4 | 52.1 | 4.46 | 6.76 |  |  |  |  |  |  |  | 
Nc1nc(NCCOCP(=O)(O)O)c([N+](=O)[O-])c(=O)[nH]1 | > 100 | > 100 | > 100 | > 100 | > 100 | > 100 | > 100 | > 100 |  | > 100 | > 100 |  |  |  |  |  |  |  |  | 
CCc1cc(C)cc2[n+]1CC=C2 |  | 81.5 | 80.7 | > 100 | 70.6 | 51.9 | > 100 | > 100 |  | 45 | 12.8 |  |  |  |  |  |  |  |  | 
